Assay results published in patent US5585360A, “Peptide compounds derived from boronic acid” (Adir et Compagnie, priority 1994, dated 1996).
Each block holds one compound with its values, some of them ahead of it.

Legend:
human thrombin = target: T1, human thrombin (Homo sapiens, UniProt P00734); test: Inhibition of thrombin (fibrinogen substrate, fibrin formation at 405 nm); assay type: biochemical; settings: for IC50: thrombin 0.7 nM, preincubation 20° C. 10 minutes, fibrinogen, read-out: CI50 Thrombin
T1 construct: human thrombin (Sigma, specific activity 3220 NIHU/mg); purchased Sigma
Procedure: In order to evaluate in vitro the inhibiting activity of the boro-Arginic products on human thrombin (Sigma, specific activity 3220 NIHU/mg), purified human fibrinogen ([…], Enzyme Research Laboratories) was added to a given quantity of thrombin (0.7 nM) previously incubated with or without the inhibitor to be tested (20° C., 10 minutes).
(§1) Inhibitors, enzymes and substrates are diluted in the same buffer ([…] phosphate buffer, pH 7.4, containing 0.12M of sodium chloride and 0.05% of bovine albumin serum) and then distributed into a microplate made of polystyrene in a volume of 50 1.
(§2) The fibrin formed by the thrombin or the para-nitroanilide released by the action of the serine protease are measured spectrophotometrically at 405 nm after 5 or 30 minutes' reaction at 20° C. respectively.

[1] = target: T2, tissue activator of plasminogen (Homo sapiens, UniProt P00750); test: Inhibition of tPA (pNA substrate S 2288); assay type: biochemical; settings: enzyme 2 nM, 30 minutes at 20° C.; read-out: CI50 tPA
T2 construct: purchased Calbiochem
T2 sequence (P00750 23-562 limits assumed): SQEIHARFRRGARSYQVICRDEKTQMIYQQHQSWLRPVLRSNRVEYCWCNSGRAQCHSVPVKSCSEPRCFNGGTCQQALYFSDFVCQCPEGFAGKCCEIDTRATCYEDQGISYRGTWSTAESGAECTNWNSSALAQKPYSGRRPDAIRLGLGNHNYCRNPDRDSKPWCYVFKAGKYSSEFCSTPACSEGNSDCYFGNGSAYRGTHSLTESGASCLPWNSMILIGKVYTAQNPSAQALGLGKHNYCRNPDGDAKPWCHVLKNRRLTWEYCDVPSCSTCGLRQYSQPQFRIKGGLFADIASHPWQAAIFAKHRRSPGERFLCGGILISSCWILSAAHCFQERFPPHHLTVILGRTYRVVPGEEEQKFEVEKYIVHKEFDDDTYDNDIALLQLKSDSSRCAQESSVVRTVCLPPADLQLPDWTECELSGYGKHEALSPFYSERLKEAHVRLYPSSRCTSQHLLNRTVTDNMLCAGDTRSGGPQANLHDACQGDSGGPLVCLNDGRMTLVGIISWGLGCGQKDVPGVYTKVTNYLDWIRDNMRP
Procedure: (§3) In order to evaluate in vitro the selectivity of these products in respect of different serine proteases of fibrinolysis and coagulation, the same protocol is applied to purified human plasmin (2 nM, Stago), to purified human activated protein C (2 nM, Stago), to purified human activated factor X (2 nM, Calbiochem), to the tissue activator of plasminogen (2 nM, Calbiochem), to purified human urokinase (2 nM, Choay), to purified human plasma kallikrein (2 nM, Calbiochem), using as substrates different peptide para-nitroanilides: <Glu-Phe-Lys-pNA (0.50mM, S 2403, Kabi) for plasmin, N-Cbo-Arg-Gly-Arg-pNA (0.39 mM, S 2765, Kabi) for the factor Xa<Glu-Pro-Arg-pNA (0.52 mM, S 2366, Kabi) for activated protein C, H-D-Pro-Phe-Arg-pNA (0.45 mM, S 2302, Kabi) for kallikrein, H-(D)-Ile-Pro-Arg-pNA (0.48 mM, S 2288, Kabi) for the tissue activator of plasminogen and <Glu-Gly-Arg-pNA (0.56 mM, S 2444, Kabi) for urokinase.
as §1, §2

[2] = target: T3, purified human activated protein C (Homo sapiens, UniProt P04070); test: Inhibition of activated protein C (pNA substrate S 2366); assay type: biochemical; settings: enzyme 2 nM, 30 minutes at 20° C.; read-out: CI50 PCa
T3 construct: purchased Stago
T3 sequence (P04070 212-450 limits assumed): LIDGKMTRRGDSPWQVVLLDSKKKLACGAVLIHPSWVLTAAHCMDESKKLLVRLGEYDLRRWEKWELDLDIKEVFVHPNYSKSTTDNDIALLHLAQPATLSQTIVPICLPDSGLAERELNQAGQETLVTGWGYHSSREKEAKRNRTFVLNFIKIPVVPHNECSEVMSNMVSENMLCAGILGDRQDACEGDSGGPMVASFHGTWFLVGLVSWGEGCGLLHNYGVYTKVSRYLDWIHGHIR
T3 sequence (P04070 43-197 partner limits assumed): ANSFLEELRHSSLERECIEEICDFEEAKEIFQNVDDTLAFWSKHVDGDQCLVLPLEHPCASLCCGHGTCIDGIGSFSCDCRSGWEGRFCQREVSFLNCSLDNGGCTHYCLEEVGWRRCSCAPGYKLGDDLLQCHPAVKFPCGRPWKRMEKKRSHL
Procedure: as §3, §1, §2

purified human plasmin = target: T4, purified human plasmin (Homo sapiens, UniProt P00747); test: Inhibition of plasmin (pNA substrate S 2403); assay type: biochemical; settings: enzyme 2 nM, 30 minutes at 20° C.; read-out: CI50 Plasmin
T4 construct: purified human plasmin (2 nM, Stago); purchased Stago
T4 sequence (P00747 581-810 limits assumed): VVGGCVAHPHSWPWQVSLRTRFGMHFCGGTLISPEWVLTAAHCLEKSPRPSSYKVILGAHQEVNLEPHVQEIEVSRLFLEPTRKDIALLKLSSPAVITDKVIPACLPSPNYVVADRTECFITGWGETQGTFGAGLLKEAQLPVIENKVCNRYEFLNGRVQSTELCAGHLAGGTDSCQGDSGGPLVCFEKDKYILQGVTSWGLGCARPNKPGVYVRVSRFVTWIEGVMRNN
T4 sequence (P00747 97-580 partner limits assumed): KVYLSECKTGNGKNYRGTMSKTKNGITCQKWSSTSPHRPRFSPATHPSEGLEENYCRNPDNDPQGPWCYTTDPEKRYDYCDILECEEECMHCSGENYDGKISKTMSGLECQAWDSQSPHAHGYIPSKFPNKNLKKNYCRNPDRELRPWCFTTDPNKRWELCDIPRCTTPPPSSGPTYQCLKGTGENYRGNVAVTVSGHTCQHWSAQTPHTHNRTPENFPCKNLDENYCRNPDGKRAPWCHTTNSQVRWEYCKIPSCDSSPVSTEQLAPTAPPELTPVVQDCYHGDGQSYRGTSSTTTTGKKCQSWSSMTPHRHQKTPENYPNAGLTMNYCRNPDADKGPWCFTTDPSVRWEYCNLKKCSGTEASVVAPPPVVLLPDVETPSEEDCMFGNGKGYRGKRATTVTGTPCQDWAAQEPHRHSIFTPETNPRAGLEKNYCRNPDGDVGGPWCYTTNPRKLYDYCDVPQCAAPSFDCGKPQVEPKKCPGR
Procedure: as §3, §1, §2

[3] = target: T5, purified human plasma kallikrein (Homo sapiens, UniProt P03952); test: Inhibition of plasma kallikrein (pNA substrate S 2302); assay type: biochemical; settings: enzyme 2 nM, 30 minutes at 20° C.; read-out: CI50 Kalli
T5 construct: purified human plasma kallikrein (2 nM, Calbiochem); purchased Calbiochem
T5 sequence (P03952 391-638 limits assumed): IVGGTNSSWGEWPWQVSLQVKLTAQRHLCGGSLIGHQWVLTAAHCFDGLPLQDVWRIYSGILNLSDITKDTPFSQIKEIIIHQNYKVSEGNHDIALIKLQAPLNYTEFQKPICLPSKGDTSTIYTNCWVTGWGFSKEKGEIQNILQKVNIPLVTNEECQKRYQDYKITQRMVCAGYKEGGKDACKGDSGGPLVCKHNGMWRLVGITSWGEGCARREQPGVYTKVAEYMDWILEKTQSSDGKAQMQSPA
T5 sequence (P03952 20-390 partner limits assumed): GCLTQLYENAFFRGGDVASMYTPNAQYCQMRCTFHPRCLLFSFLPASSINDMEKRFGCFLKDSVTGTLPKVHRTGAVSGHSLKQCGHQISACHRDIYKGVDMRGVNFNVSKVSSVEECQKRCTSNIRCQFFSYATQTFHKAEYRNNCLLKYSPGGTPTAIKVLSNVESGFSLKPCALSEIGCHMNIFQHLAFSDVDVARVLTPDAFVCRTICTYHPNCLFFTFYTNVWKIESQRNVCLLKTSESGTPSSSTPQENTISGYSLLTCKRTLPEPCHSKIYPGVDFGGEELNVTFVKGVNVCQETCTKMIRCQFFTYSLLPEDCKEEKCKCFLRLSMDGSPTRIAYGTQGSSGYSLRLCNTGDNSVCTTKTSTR
Procedure: as §3, §1, §2

[4] = test system: thrombin time (TT), plasma; test: Anticoagulant activity, thrombin time (TT) in human plasma; assay type: biochemical, man; settings: human platelet-depleted plasma, 2 min at 37° C.
Procedure: (§4) In the presence of a standard quantity of thrombin or of calcium thromboplastin a normal plasma coagulates in a defined and constant time, called thrombin time (TT) and prothrombin time (PT) respectively. Venous blood is collected at the elbow bend into a trisodium citrate (0.109M) solution. A plasma depleted in platelets is obtained by centrifuging the blood samples (3000 g, 15 minutes). The thrombin time is obtained with the Thrombin Prest (Stago) reagent and the prothrombin time with the Neoplastine (Stago) reagent. They are determined automatically by employing an ST4 (Stago) coagulometer. […] In these conditions the TT obtained in the control plasma is of the order of 20 seconds in man, and PT of the order of 12 seconds. The activity of an inhibitor is evaluated by its ability to lengthen these times when compared with the control. In these conditions the compounds of the invention permit a lengthening of the thrombin time and of the prothrombin time of 50-fold and more. The effect of the inhibitors is measured and the concentration which doubles the coagulation time (CTT2 for the thrombin time and CPT2 for the prothrombin time) is determined.

purified human urokinase = target: T6, purified human urokinase (Homo sapiens, UniProt P00749); test: Inhibition of urokinase (pNA substrate S 2444); assay type: biochemical; settings: enzyme 2 nM, 30 minutes at 20° C.; read-out: CI50 Urokinase
T6 construct: purchased Choay
Procedure: as §3, §1, §2

[5] = test system: prothrombin time (PT), plasma; test: Anticoagulant activity, prothrombin time (PT) in human plasma; assay type: biochemical, man; settings: human platelet-depleted plasma, 2 min at 37° C., calcium thromboplastin
Procedure: as §4

[6] = target: T7, purified human activated factor X (Homo sapiens, UniProt P00742); test: Inhibition of factor Xa (pNA substrate S 2765); assay type: biochemical; settings: enzyme 2 nM, 30 minutes at 20° C.; read-out: CI50 FXa
T7 construct: purchased Calbiochem
T7 sequence (P00742 235-488 limits assumed): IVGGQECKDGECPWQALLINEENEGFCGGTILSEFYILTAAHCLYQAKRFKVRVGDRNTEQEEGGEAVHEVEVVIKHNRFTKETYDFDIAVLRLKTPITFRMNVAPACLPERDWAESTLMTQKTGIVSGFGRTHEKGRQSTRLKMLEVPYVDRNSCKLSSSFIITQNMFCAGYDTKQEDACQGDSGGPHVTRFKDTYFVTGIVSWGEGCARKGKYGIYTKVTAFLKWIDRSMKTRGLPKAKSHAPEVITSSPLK
T7 sequence (P00742 41-179 partner limits assumed): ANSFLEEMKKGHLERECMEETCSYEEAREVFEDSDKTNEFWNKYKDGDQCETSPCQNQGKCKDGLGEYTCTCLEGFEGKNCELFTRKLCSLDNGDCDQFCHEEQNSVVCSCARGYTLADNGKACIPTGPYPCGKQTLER
Procedure: as §3, §1, §2

[7] = test system: activated cephalin time (ACT); test: Anticoagulant activity ex vivo, i.v. route in the dog (ACT); settings: for ACT increase index: 0.5 mg/kg i.v.
Description: The dogs are left breathing freely.

platelets [8] = test: Number of platelets after i.v. administration in the dog; settings: 0.25 mg/kg i.v.
Procedure: Fasted dogs are anaesthetized with pentobarbital (30 mg/kg, i.v.). A femoral artery and a saphenous vein are exposed and catheterized. The dogs are left breathing freely.

thrombin time = test: Anticoagulant activity ex vivo, oral route in the dog (thrombin time); settings: 2.5 mg/kg oral
Procedure: (§5) After a blood sample has been taken, the products are administered orally. At specified times after the treatment the blood is sampled intravenously. The plasma is prepared, the platelets are counted and the thrombin time test is carried out.
(§6) The activity is durable (4 hours).

platelets [9] = test: Number of platelets after oral administration in the dog; assay type: in vivo; settings: 2.5 mg/kg oral
Procedure: as §5, §6

[10] = test system: activated cephalin time (ACT); test: Anticoagulant activity ex vivo, i.v. route in the rat (ACT); settings: 0.25 mg/kg i.v.
Procedure: OFA rats, fasted or not, are anaesthetized with pentobarbital (60 mg/kg, i.p.). The carotid artery and the jugular vein are exposed and catheterized. The catheters are purged with citrated physiological saline (1/40). After installation of the catheters a sampling of 1.5 cm^3 of arterial blood is performed on 0.109 M citrate (1/9).
30 minutes later the product to be tested is administered i.v. in a volume of 1 ml.
Arterial samplings (1.5 ml) are then performed at 1 minute 30, 5, 15, 30 and 60 minutes.
At each sampling 1.5 ml of citrated physiological saline is reinjected into the animal via the carotid.
The tubes of blood are centrifuged for 5 minutes at 3000 g (preparation of the plasma).
100 1 of plasma are incubated with 100 1 of activated cephalin. The time of appearance of the coagulation phenomenon is measured after addition of 100 1 of calcium.
The results are reproduced in the following table and show the indices of increase in the coagulation time.

- IC50 (human thrombin): 0.74 nM
- IC50 [1]: 395 nM
- IC50 [2]: 458 nM
- IC50 (purified human plasmin): > 33000 nM
- IC50 [3]: 1080 nM
- IC50 (purified human urokinase): > 33000 nM
- IC50 [6]: > 330000 nM
Compound: 1-(R)-{[Ac-(R)Phe-(N-cyclopentyl)Gly]amino}-4-(1N-methylguanidino)butylboronic Acid Acetate [Example 8]
- selectivity for thrombin versus other serine proteases, compared with DUP 714 (human thrombin; comparison of CI50 values): much more selective inhibitors of thrombin than DUP 714
- CTT2 (concentration which doubles the thrombin time) [4]: 0.30 µM
- CTP2 (concentration which doubles the prothrombin time) [5]: 3.06 µM

Compound: CC(=O)N[C@H](Cc1ccccc1)C(=O)N1CCC[C@H]1C(=O)N[C@@H](CCCN=C(N)N)B(O)O [DUP 714, Ac-(D)Phe-Pro-Arg-boronic acid, reference compound]
- increase in the ACT ([7]; 0.25 mg/kg i.v.): comparable with that obtained with Example 2 in a dosage of 0.5 mg/kg
- IC50 [1]: 5.3 nM
- IC50 [2]: 15 nM
- IC50 (purified human plasmin): 24 nM
- IC50 [3]: 6.8 nM
- CTT2 (concentration which doubles the thrombin time) [4]: 0.18 µM
- IC50 (purified human urokinase): 22 nM
- CTP2 (concentration which doubles the prothrombin time) [5]: 2.63 µM
- thrombopenia (platelets [8]): 20%
- IC50 [6]: 81 nM

Compound: CC(=O)NC(Cc1ccccc1)C(=O)N(CC(=O)N[C@@H](CCCSC(=N)N)B(O)O)C1CCCCC1.CC(=O)O (stereo partly drawn) [Example 4, 1-(R)-{[Ac-(R,S)Phe-(N-cyclohexyl)Gly]amino}-4-(isothioureido) butylboronic Acid Acetate]
- CTT2 (concentration which doubles the thrombin time) [4]: 0.34 µM
- CTP2 (concentration which doubles the prothrombin time) [5]: 2.44 µM

Compound: CC(=O)N[C@H](Cc1ccccc1)C(=O)N(CC(=O)N[C@@H](CCCSC(=N)N)B(O)O)C1CCCC1.CC(=O)O [Example 2, 1-(R )-{[Ac-(R)Phe-(N-cyclopentyl)Gly]amino}-4-(isothioureido)butylboronic Acid Acetate]
- selectivity for thrombin versus other serine proteases, compared with DUP 714 (human thrombin; comparison of CI50 values): much more selective inhibitors of thrombin than DUP 714
- thrombin inhibition compared with DUP 714 (human thrombin; comparison of CI50 values): as powerfully as DUP 7 14
- IC50 (human thrombin): 0.59 nM
- ACT increase index ([7]; 1.5 minutes): 9.6
- ACT increase index ([7]; 5 minutes): 3.6
- ACT increase index ([7]; 15 minutes): 1.9
- ACT increase index ([7]; 30 minutes): 1.4
- ACT increase index ([7]; 60 minutes): 1.1
- duration of activity (TT increase) (thrombin time): 4 h
- increase in the TT (thrombin time; 0.5 hours): 1.1
- increase in the TT (thrombin time; 1 hour): 1.6
- increase in the TT (thrombin time; 2 hours): 1.5
- increase in the TT (thrombin time; 4 hours): 1.1
- IC50 [1]: 108 nM
- IC50 [2]: 593 nM
- IC50 (purified human plasmin): 1040 nM
- IC50 [3]: 164 nM
- modification of the number of platelets (platelets [9]): without modification of the number of platelets
- CTT2 (concentration which doubles the thrombin time) [4]: 0.20 µM
- IC50 (purified human urokinase): 2500 nM
- CTP2 (concentration which doubles the prothrombin time) [5]: 2.29 µM
- IC50 [6]: > 100000 nM
- index of increase in the coagulation time (ACT) ([10]; 1.5 minutes): 2.6
- index of increase in the coagulation time (ACT) ([10]; 5 minutes): 1.8
- index of increase in the coagulation time (ACT) ([10]; 15 minutes): 1.2
- index of increase in the coagulation time (ACT) ([10]; 30 minutes): 1.2
- index of increase in the coagulation time (ACT) ([10]; 60 minutes): 1.1

Compound: CC(=O)N[C@H](Cc1ccccc1)C(=O)N(CC(=O)N[C@@H](CCCSC(=N)N)B(O)O)C1CCCCC1.CC(=O)O [Example 6, 1-(R)-{[Ac-(R)Phe-(N-cyclohexyl)Gly]amino}-4-(isothioureido)butylboronic Acid Acetate]
- selectivity for thrombin versus other serine proteases, compared with DUP 714 (human thrombin; comparison of CI50 values): much more selective inhibitors of thrombin than DUP 714
- IC50 (human thrombin): 1.75 nM
- IC50 [1]: 92 nM
- IC50 [2]: 467 nM
- IC50 (purified human plasmin): 1260 nM
- IC50 [3]: 181 nM
- CTT2 (concentration which doubles the thrombin time) [4]: 0.29 µM
- IC50 (purified human urokinase): 1510 nM
- CTP2 (concentration which doubles the prothrombin time) [5]: 2.92 µM
- IC50 [6]: 10800 nM
